Laboratory results reported in PubChem BioAssay AID2060882 (Molecular Pharmacology Branch, DTP, NCI, 2025).

Test system: 898857-211-R-J1-PDC complex spheroids, growth % test/control
Assay: Anticancer human tumor 898857-211-R-J1-PDC patient-derived melanoma cell line growth inhibition [RAS]
Conditions: for IC50: curve of first compound; for viability, T/C: stronger effect = lower value
Source text: RAS pathway inhibitors in Combinations in Complex Spheroids
A high-throughput screen of multi-cell type tumor spheroids was designed to identify active combinations of RAS pathway inhibitors and targeted small molecules. Complex spheroids include a stromal component modeled by human endothelial cells (HUVEC) and fibroblasts modeled by human mesenchymal stem cells (MSCs). The concentration ranges selected for each drug and investigational agent were based upon clinically achievable concentrations if the clinical Cmax of the agent was known.
Compounds. The drugs and investigational agents: abemaciclib (NSC768073), cobimetinib (NSC768068), divarasib (GDC6063, NSC841802), docetaxel (NSC628503), GDC-1971 (RLY-1971, NSC841576), gemcitabine (NSC613327), inavolisib (NSC800729), ipatasertib (NSC767898), KB-0742 (NSC834161), MRTX-1133 (NSC836407), osimertinib (NSC779217), RMC-4630 (NSC839698), RMC-6236 (NSC851965), RMC-6291 (NSC852671), Ro-3306 (NSC812927), sapanisertib (NSC764658), SN-38 (NSC673596), staurosporine (NSC755774), SY5609 (NSC837396), and tovorafenib (DAY101, NSC766906), were obtained from the National Cancer Institute (NCI) Developmental Therapeutics Program Chemical Repository. The FDA-approved anticancer drug set is available from the NCI Developmental Therapeutics Program. […] The stock solutions were prepared in dimethyl sulfoxide (DMSO, Sigma-Aldrich, St. Louis, MO, cat. D2650) at 800-fold the tested concentration and stored at -70 degrees C prior to their use. All drugs and investigational agents were tested over a range starting from a high concentration at or near the clinical Cmax and decreasing in half-log increments. If the clinical Cmax for an agent had not been determined, the highest concentration tested was 10 microM.
Cell Culture. All cells were maintained in an incubator at 37 degrees C and 5% CO2 with 95% humidity. The PDC lines were cultured according to standard operating procedures established by the NCI PDMR. All PDCs were thawed and cultured in Matrigel-coated flasks prepared with a working solution of 1X Ham's F-12 nutrient mix, without supplementation (Invitrogen, Waltham, MA, cat. 11765054), 100 U/mL penicillin-streptomycin (Invitrogen, cat. 15140122), and 2.5% Matrigel (Corning Inc., Corning, NY, cat. 354248) for the first three passages. The 362531-283-R-J2-PDC and 782815-120-R-J1-PDC lines were cultured in 6C/Colon 1B media, which includes advanced DMEM/F-12 (Thermo Fisher Scientific, cat. 12634028), 10 mM HEPES (Thermo Fisher Scientific, cat. 15630080), 1X GlutaMAX supplement (Thermo Fisher Scientific, cat. 35050061), 0.1 mg/mL primocin (InvivoGen, San Diego, CA, cat. ant-pm-2), 10% defined fetal bovine serum, heat inactivated (HyClone Laboratories Inc., Logan, UT, cat. SH30070.03HI), 50% L-WRN conditioned media (ATCC, cat. CRL-3276), 1.25 mM N-Acetyl-L-cysteine (Sigma-Aldrich, cat. A9165), 10 mM nicotinamide (Sigma-Aldrich, cat. N0636), 1X B-27 supplement (Thermo Fisher Scientific, cat. 17504044), 1X N-2 supplement (Thermo Fisher Scientific, cat. 17502048), 50 ng/mL human EGF (Thermo Fisher Scientific, cat. PHG0311), and 10 microM Y-27632 dihydrochloride (Tocris Bioscience, cat. 1254). The K12877-001-R-J1-PDC line was cultured in 6I media, which includes all 6C/Colon 1B media plus 10 ng/mL human FGF-10 (PeproTech, cat. 100-26), 1 ng/mL human FGF-2 (PeproTech, cat. 100-18B), 1 µM prostaglandin E2 (Tocris Bioscience, cat. 2296), […] hydrocortisone (Sigma-Aldrich, cat. H4001), and […] bovine insulin (Sigma-Aldrich, cat. I6634). The K86415-001-R-J1-PDC line was cultured in 6D media, which includes all 6C/Colon 1B media components minus the L-WRN conditioned media. The 485176-168-R4-J1-PDC was cultured in PANC media, which includes all 6C/Colon 1B media plus 100 ng/mL human FGF-10 (PeproTech, cat. 100-26), 500 nM SB-431542 (Selleckchem, cat. S1067), and 10 nM gastrin (Tocris Bioscience, cat. 3006). […]

[1] = second compound 0.0316 µM, first compound 0.0316 µM
[2] = second compound 0.0316 µM, first compound 0.1 µM
[3] = second compound 0.0316 µM, first compound 0.316 µM
[4] = second compound 0.0316 µM, first compound 1 µM
[5] = second compound 0.0316 µM, first compound 3.16 µM
[6] = second compound 0.0316 µM, first compound 10 µM
[7] = second compound 0.1 µM, first compound 0.0316 µM
[8] = second compound 0.1 µM, first compound 0.1 µM
[9] = second compound 0.1 µM, first compound 0.316 µM
[10] = second compound 0.1 µM, first compound 1 µM
[11] = second compound 0.1 µM, first compound 3.16 µM
[12] = second compound 0.1 µM, first compound 10 µM
[13] = second compound 0.316 µM, first compound 0.0316 µM
[14] = second compound 0.316 µM, first compound 0.1 µM
[15] = second compound 0.316 µM, first compound 0.316 µM
[16] = second compound 0.316 µM, first compound 1 µM
[17] = second compound 0.316 µM, first compound 3.16 µM
[18] = second compound 0.316 µM, first compound 10 µM
[19] = second compound 1 µM, first compound 0.0316 µM
[20] = second compound 1 µM, first compound 0.1 µM
[21] = second compound 1 µM, first compound 0.316 µM
[22] = second compound 1 µM, first compound 1 µM
[23] = second compound 1 µM, first compound 3.16 µM
[24] = second compound 1 µM, first compound 10 µM
[25] = second compound 3.16 µM, first compound 0.0316 µM
[26] = second compound 3.16 µM, first compound 0.1 µM
[27] = second compound 3.16 µM, first compound 0.316 µM
[28] = second compound 3.16 µM, first compound 1 µM
[29] = second compound 3.16 µM, first compound 3.16 µM
[30] = second compound 3.16 µM, first compound 10 µM
[31] = second compound 10 µM, first compound 0.0316 µM
[32] = second compound 10 µM, first compound 0.1 µM
[33] = second compound 10 µM, first compound 0.316 µM
[34] = second compound 10 µM, first compound 1 µM
[35] = second compound 10 µM, first compound 3.16 µM
[36] = second compound 10 µM, first compound 10 µM
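Further: spheroids exposed to compound for seven days before readout.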
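Wherever viability, T/C is given: 100% = DMSO vehicle control wells.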

CC(C)NCC(C(=O)N1CCN(c2ncnc3c2C(C)CC3O)CC1)c1ccc(Cl)cc1 (stereo unspecified) + C#Cc1c(F)ccc2cc(O)cc(-c3ncc4c(N5CC6CCC(C5)N6)nc(OCC56CCCN5CC(F)C6)nc4c3F)c12
IC50 (second compound 0.0316 µM): > 10000 nM
IC50 (second compound 0.1 µM): > 10000 nM
IC50 (second compound 0.316 µM): > 10000 nM
IC50 (second compound 1 µM): > 10000 nM
IC50 (second compound 3.16 µM): > 10000 nM
IC50 (second compound 10 µM): 132 nM
viability, T/C [1]: 100%
viability, T/C [2]: 89.4%
viability, T/C [3]: 103%
viability, T/C [4]: 80.8%
viability, T/C [5]: 73.6%
viability, T/C [6]: 67.6%
viability, T/C [7]: 116%
viability, T/C [8]: 104%
viability, T/C [9]: 98.5%
viability, T/C [10]: 88.2%
viability, T/C [11]: 85.2%
viability, T/C [12]: 61.4%
viability, T/C [13]: 101%
viability, T/C [14]: 103%
viability, T/C [15]: 104%
viability, T/C [16]: 83.4%
viability, T/C [17]: 70.8%
viability, T/C [18]: 55.2%
viability, T/C [19]: 99.9%
viability, T/C [20]: 95.8%
viability, T/C [21]: 104%
viability, T/C [22]: 92%
viability, T/C [23]: 74.7%
viability, T/C [24]: 61%
viability, T/C [25]: 102%
viability, T/C [26]: 95.9%
viability, T/C [27]: 109%
viability, T/C [28]: 92.7%
viability, T/C [29]: 78.1%
viability, T/C [30]: 52%
viability, T/C [31]: 54.3%
viability, T/C [32]: 59.4%
viability, T/C [33]: 38.5%
viability, T/C [34]: 33.8%
viability, T/C [35]: 27.5%
viability, T/C [36]: 8.24%

CC(C)n1nc(-c2ccc3oc(N)nc3c2)c2c(N)ncnc21 + C#Cc1c(F)ccc2cc(O)cc(-c3ncc4c(N5CC6CCC(C5)N6)nc(OCC56CCCN5CC(F)C6)nc4c3F)c12
IC50 (second compound 0.0316 µM): 32.6 nM
IC50 (second compound 0.1 µM): 38.2 nM
IC50 (second compound 0.316 µM): 37.7 nM
IC50 (second compound 1 µM): 37.3 nM
IC50 (second compound 3.16 µM): 39.6 nM
IC50 (second compound 10 µM): 1.06 nM
viability, T/C (second compound 0.0316 µM, first compound 0.000316 µM): 108%
viability, T/C (second compound 0.0316 µM, first compound 0.001 µM): 92.3%
viability, T/C (second compound 0.0316 µM, first compound 0.00316 µM): 101%
viability, T/C (second compound 0.0316 µM, first compound 0.01 µM): 81.8%
viability, T/C [1]: 50.9%
viability, T/C [2]: 24%
viability, T/C (second compound 0.1 µM, first compound 0.000316 µM): 115%
viability, T/C (second compound 0.1 µM, first compound 0.001 µM): 99.8%
viability, T/C (second compound 0.1 µM, first compound 0.00316 µM): 100%
viability, T/C (second compound 0.1 µM, first compound 0.01 µM): 79.5%
viability, T/C [7]: 54.4%
viability, T/C [8]: 24.5%
viability, T/C (second compound 0.316 µM, first compound 0.000316 µM): 112%
viability, T/C (second compound 0.316 µM, first compound 0.001 µM): 113%
viability, T/C (second compound 0.316 µM, first compound 0.00316 µM): 99.2%
viability, T/C (second compound 0.316 µM, first compound 0.01 µM): 78.9%
viability, T/C [13]: 55.6%
viability, T/C [14]: 26.6%
viability, T/C (second compound 1 µM, first compound 0.000316 µM): 110%
viability, T/C (second compound 1 µM, first compound 0.001 µM): 103%
viability, T/C (second compound 1 µM, first compound 0.00316 µM): 107%
viability, T/C (second compound 1 µM, first compound 0.01 µM): 81.4%
viability, T/C [19]: 55.8%
viability, T/C [20]: 23.5%
viability, T/C (second compound 3.16 µM, first compound 0.000316 µM): 122%
viability, T/C (second compound 3.16 µM, first compound 0.001 µM): 114%
viability, T/C (second compound 3.16 µM, first compound 0.00316 µM): 102%
viability, T/C (second compound 3.16 µM, first compound 0.01 µM): 84.4%
viability, T/C [25]: 55.8%
viability, T/C [26]: 23.8%
viability, T/C (second compound 10 µM, first compound 0.000316 µM): 57.5%
viability, T/C (second compound 10 µM, first compound 0.001 µM): 47.7%
viability, T/C (second compound 10 µM, first compound 0.00316 µM): 46.7%
viability, T/C (second compound 10 µM, first compound 0.01 µM): 29.9%
viability, T/C [31]: 24.4%
viability, T/C [32]: 10.4%

CC(Nc1ccc2c(c1)OCCn1cc(N3C(=O)OCC3C(F)F)nc1-2)C(N)=O (stereo unspecified) + C#Cc1c(F)ccc2cc(O)cc(-c3ncc4c(N5CC6CCC(C5)N6)nc(OCC56CCCN5CC(F)C6)nc4c3F)c12
IC50 (second compound 0.0316 µM): > 10000 nM
IC50 (second compound 0.1 µM): > 10000 nM
IC50 (second compound 0.316 µM): > 10000 nM
IC50 (second compound 1 µM): > 10000 nM
IC50 (second compound 3.16 µM): > 10000 nM
IC50 (second compound 10 µM): 89.7 nM
viability, T/C [1]: 96.9%
viability, T/C [2]: 98.4%
viability, T/C [3]: 98.3%
viability, T/C [4]: 87.7%
viability, T/C [5]: 97.8%
viability, T/C [6]: 69.4%
viability, T/C [7]: 99.9%
viability, T/C [8]: 90%
viability, T/C [9]: 99.2%
viability, T/C [10]: 98.4%
viability, T/C [11]: 91.6%
viability, T/C [12]: 69.9%
viability, T/C [13]: 106%
viability, T/C [14]: 101%
viability, T/C [15]: 92.5%
viability, T/C [16]: 94.2%
viability, T/C [17]: 87.3%
viability, T/C [18]: 71.3%
viability, T/C [19]: 108%
viability, T/C [20]: 99.8%
viability, T/C [21]: 104%
viability, T/C [22]: 94.7%
viability, T/C [23]: 83.4%
viability, T/C [24]: 65.2%
viability, T/C [25]: 98.1%
viability, T/C [26]: 89.2%
viability, T/C [27]: 94.3%
viability, T/C [28]: 96.3%
viability, T/C [29]: 82.8%
viability, T/C [30]: 72.4%
viability, T/C [31]: 59.6%
viability, T/C [32]: 39.3%
viability, T/C [33]: 47.1%
viability, T/C [34]: 40.1%
viability, T/C [35]: 32%
viability, T/C [36]: 20.5%
